US20230277863A1, “Use Of Photosensitizers For Treatment Of Viral Respiratory Infections” (priority 2020, published 2023)

Experiments:
[1] = tested on: SARS-CoV-2/Germany strain; assay: Inactivation of SARS-CoV-2 in infected Vero E6 cells, methylene blue plus broadband LED irradiation; details: for mean reduction factor (RF): broadband LED (Ledlenser P6), SARS-CoV-2-infected Vero E6 cells; for inactivation of the SARS-CoV-2: corresponds to the mean RF
BCoV strain L9 = assay: Inactivation of bovine coronavirus in infected U373 cells, photosensitizer plus 810 nm laser irradiation; details: for residual virus: 100 joule/cm^2, 0.3 watt/cm^2
SARS-CoV-2 = assay: Treatment of a human subject suffering from COVID-19; assay type: in vivo; details: one patient, 3 days, every 6 hours
bovine coronavirus = assay: Inactivation of bovine coronavirus in infected cells using non-coherent LED light; assay type: cell-based; details: broadband LED light (non-coherent), 10000 Lux, 2 min of irradiation
Method: In a further set of experiments, the U737 cells were treated under the conditions as shown in the table of FIG. 1 using irradiation with either a monochromatic LED device at 590 nm or a broadband LED device (non-coherent light in each case). Light intensity was 10000 Lux in both cases.

[2] = 0.01% photosensitizer, without radiation, immediately wrapped in aluminium foil, stored and frozen in the dark

## CN(C)c1ccc2nc3ccc(=[N+](C)C)cc-3sc2c1 [methylene blue]
[1]; 0.0001% photosensitizer
  mean reduction factor (RF): ≥ 4.67
  inactivation of the SARS-CoV-2: 99.99%
[1]; 0.001% or 0.0001% photosensitizer, irradiation 1 minute, 20,000 lx, initial virus titre 6.92 log 10 TCID50/ml, Vero E6 cells
  residual virus: No residual virus was found
[1]; 0.001% photosensitizer
  mean reduction factor (RF): ≥ 4.67
  inactivation of the SARS-CoV-2: 99.99%
BCoV strain L9; 0.0001% (w/v) photosensitizer, 810 nm, 100 joule/cm^2, 0.3 watt/cm^2, 5.46 min, BCoV-infected U373 cells
  mean reduction factor: ≥ 6.00 log10 steps
BCoV strain L9; 0.0001% photosensitizer samples, titration on U373 cells
  cytotoxicity (CT): no cytotoxicity
BCoV strain L9; 0.0001% photosensitizer, 810 nm
  residual virus: only minimal residual virus could still be detected in one sample
BCoV strain L9; 0.0001% photosensitizer, 810 nm, 100 joule/cm^2, corresponds to the mean RF
  virus inactivation: ≥ 99.999%
BCoV strain L9; 0.001% (w/v) photosensitizer, 810 nm, 100 joule/cm^2, 0.3 watt/cm^2, 5.46 min, BCoV-infected U373 cells
  reduction factor (RF): 5.08 log10 steps
BCoV strain L9; 0.01% (w/v) photosensitizer, 810 nm, 100 joule/cm^2, 0.3 watt/cm^2, 5.46 min, BCoV-infected U373 cells
  reduction factor (RF): 4.08 log10 steps
BCoV strain L9; [2]
  reduction factor (RF): 0.38±0.64
  residual virus / effectiveness: substantial amounts of residual virus and no effectiveness
BCoV strain L9; 0.1% (w/v) photosensitizer, 810 nm, 100 joule/cm^2, 0.3 watt/cm^2, 5.46 min, BCoV-infected U373 cells
  reduction factor (RF): 3.08 log10 steps
BCoV strain L9; 0.1% (w/v) to 0.001% (w/v) photosensitizer, 810 nm
  residual virus: no residual virus was found
SARS-CoV-2; 3 μg methylene blue nasal/throat spray plus broadband LED ca. 6000 Lux, CT before treatment 19
  PCR SARS-CoV-2 cycle threshold (CT) after treatment: 35
SARS-CoV-2; 3 μg methylene blue spray plus broadband LED, before: dry cough, headache, 38.2° C., medium general condition
  condition of patient after treatment: no cough, no headache, normalized body temperature, normal general condition
Bovine coronavirus
  reduction of residual virus: 3 log10 steps
